In patent publication US9908890B2, “Selective inhibitors of constitutive androstane receptor” (ST. JUDE CHILDREN'S RESEARCH HOSPITAL, priority 2014, dated 2018):
Values joined by “and” are separate entries in the source; they are usually repeats but may differ in a detail not shown here. Identical values can stand only once. Like-named read-outs stand apart in the source and are kept apart here.

Molecular target: T1, GST-hCAR-LBD (Homo sapiens, UniProt Q14994)
T1 construct: purchased Life Technologies (Carlsbad, Calif.) or Invitrogen (Carlsbad, Calif.)
T1 sequence (Q14994 109-352 limits assumed): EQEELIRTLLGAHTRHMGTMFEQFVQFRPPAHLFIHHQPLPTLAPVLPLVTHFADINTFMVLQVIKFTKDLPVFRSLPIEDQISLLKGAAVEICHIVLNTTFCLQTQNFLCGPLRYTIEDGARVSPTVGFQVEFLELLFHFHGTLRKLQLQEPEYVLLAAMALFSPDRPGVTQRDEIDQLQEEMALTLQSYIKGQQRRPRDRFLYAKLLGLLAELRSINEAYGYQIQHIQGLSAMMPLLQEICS
Assay: CoAct binding inverse agonist assay (LanthaScreen TR-FRET, fluorescent PGC-1α coactivator recruitment/repression)
Type: biochemical
Conditions: for fold increase of CAR inverse agonistic activity (potency) over lead chemical 1 (CINPA1) / fold increase of IC50 (decrease of activity) relative to lead chemical 1 (CINPA1): relative to chemical 1
Protocol: The effect of putative CAR ligands on the recruitment or repression of PGC-1α binding to hCAR was evaluated by using a LanthaScreen TR-FRET assay according to the manufacturer's instructions. […] The final DMSO concentration was 0.7% in all assay wells. […] The % Inhibition values were then plotted for individual chemicals. When applicable, the graphic software GraphPad Prism 5.04 (GraphPad Software, La Jolla, Calif., USA) was used to fit the data into a one-site competitive-binding equation to derive IC50 values. […] The assay plates were then briefly spun down and incubated for 1 hour at room temperature (25° C.). […] The final DMSO concentration was 0.7% in all assay wells. […] The % Inhibition values were then plotted for individual chemicals. When applicable, the graphic software GraphPad Prism 5.04 (GraphPad Software, La Jolla, Calif., USA) was used to fit the data into a one-site competitive-binding equation to derive IC50 values.

[1] = read-out: IC50 (CAR inverse agonistic activity)
[2] = 70 μM compound, 42 μM clotrimazole = 100%, DMSO = 0%

Structure (SMILES)	IC50 [1]	IC50 (Table 4, read-out: IC50)	other results
CCCN(CCC)CC(=O)N1c2ccccc2CCc2ccc(NC(=O)OC(C)C)cc21 [Compound 28, isopropyl (5-(dipropylglycyl)-10,11-dihydro-5H-dibenzo[b,f]azepin-3-yl)carbamate]	120 nM		
CCOCC(=O)N1c2ccccc2CCc2ccc(NC(=O)OC(C)C)cc21 [Compound 29, isopropyl (5-(2-ethoxyacetyl)-10,11-dihydro-5H-dibenzo[b,f]azepin-3-yl)carbamate]	11400 nM		
CC(C)OCC(=O)N1c2ccccc2CCc2ccc(NC(=O)OC(C)C)cc21 [Compound 30, isopropyl (5-(2-isopropoxyacetyl)-10,11-dihydro-5H-dibenzo[b,f]azepin-3-yl)carbamate]	60 nM		
CCC(C)OCC(=O)N1c2ccccc2CCc2ccc(NC(=O)OC(C)C)cc21 (stereo not shown) [Compound 31, isopropyl (5-(2-(sec-butoxy)acetyl)-10,11-dihydro-5H-dibenzo[b,f]azepin-3-yl)carbamate]	35 nM		
CC(C)OC(=O)Nc1ccc2c(c1)N(C(=O)COCC(C)(C)C)c1ccccc1CC2 [Compound 32, isopropyl (5-(2-(neopentyloxy)acetyl)-10,11-dihydro-5H-dibenzo[b,f]azepin-3-yl)carbamate]	21 nM		
CC(C)OC(=O)Nc1ccc2c(c1)N(C(=O)COC1CC1)c1ccccc1CC2 [Compound 33, isopropyl (5-(2-cyclopropoxyacetyl)-10,11-dihydro-5H-dibenzo[b,f]azepin-3-yl)carbamate]	82 nM		
CC(C)OC(=O)Nc1ccc2c(c1)N(C(=O)COC1CCC1)c1ccccc1CC2 [Compound 34, isopropyl (5-(2-cyclobutoxyacetyl)-10,11-dihydro-5H-dibenzo[b,f]azepin-3-yl)carbamate]	38 nM		
CC(C)OC(=O)Nc1ccc2c(c1)N(C(=O)COC1CCCC1)c1ccccc1CC2 [Compound 35, isopropyl (5-(2-(cyclopentyloxy)acetyl)-10,11-dihydro-5H-dibenzo[b,f]azepin-3-yl)carbamate]	20 nM		
CC(C)OC(=O)Nc1ccc2c(c1)N(C(=O)COC1CCCCC1)c1ccccc1CC2 [Compound 36, isopropyl (5-(2-(cyclohexyloxy)acetyl)-10,11-dihydro-5H-dibenzo[b,f]azepin-3-yl)carbamate]	24 nM		
CCCN(CCC)CC(=O)N1c2ccccc2CCc2ccc(NC(=O)OC(C)(C)C)cc21 [Compound 37, tert-butyl (5-(dipropylglycyl)-10,11-dihydro-5H-dibenzo[b,f]azepin-3-yl)carbamate]	150 nM	153 nM	
CC(C)(C)OC(=O)Nc1ccc2c(c1)N(C(=O)CN1CCCCC1)c1ccccc1CC2 [Compound 38, tert-butyl (5-(2-(piperidin-1-yl)acetyl)-10,11-dihydro-5H-dibenzo[b,f]azepin-3-yl)carbamate]	220 nM		
CC(C)OCC(=O)N1c2ccccc2CCc2ccc(NC(=O)OC(C)(C)C)cc21 [Compound 39, tert-butyl (5-(2-isopropoxyacetyl)-10,11-dihydro-5H-dibenzo[b,f]azepin-3-yl)carbamate]	120 nM		
O=C(Nc1ccc2c(c1)N(C(=O)Cn1cccc1)c1ccccc1CC2)OC1CC1 [Compound 41, cyclopropyl (5-(2-(1H-pyrrol-1-yl)acetyl)-10,11-dihydro-5H-dibenzo[b,f]azepin-3-yl)carbamate]	22 nM		
O=C(Nc1ccc2c(c1)N(C(=O)Cn1cccc1)c1ccccc1CC2)OC1CCC1 [Compound 42, cyclobutyl (5-(2-(1H-pyrrol-1-yl)acetyl)-10,11-dihydro-5H-dibenzo[b,f]azepin-3-yl)carbamate]	20 nM		
O=C(Nc1ccc2c(c1)N(C(=O)Cn1cccc1)c1ccccc1CC2)OC1CCCC1 [Compound 43, cyclopentyl (5-(2-(1H-pyrrol-1-yl)acetyl)-10,11-dihydro-5H-dibenzo[b,f]azepin-3-yl)carbamate]	14 nM		
O=C(Nc1ccc2c(c1)N(C(=O)Cn1cccc1)c1ccccc1CC2)OC1CCCCC1 [Compound 44, cyclohexyl (5-(2-(1H-pyrrol-1-yl)acetyl)-10,11-dihydro-5H-dibenzo[b,f]azepin-3-yl)carbamate]	12 nM		fold increase of CAR inverse agonistic activity (potency) over lead chemical 1 (CINPA1): approximately 59 fold
O=C(Nc1ccc2c(c1)N(C(=O)Cn1cccc1)c1ccccc1CC2)N1CCCC1 [Compound 45]		280 nM	
O=C(Cn1cccc1)N1c2ccccc2CCc2ccc(NC(=O)n3cccc3)cc21 [Compound 46]		81 nM	
O=C(Nc1ccc2c(c1)N(C(=O)Cn1cccc1)c1ccccc1CC2)N1CCCCC1 [Compound 47]		99 nM	
O=C(Nc1ccc2c(c1)N(C(=O)Cn1cccc1)c1ccccc1CC2)N1CCOCC1 [Compound 48]		370 nM	
CC(C)OC(=O)Nc1ccc2c(c1)N(C(=O)COC1COC1)c1ccccc1CC2 [Compound 49]		660 nM	
O=C(Nc1ccc2c(c1)N(C(=O)COC1CCCC1)c1ccccc1CC2)OC1CCCCC1 [Compound 51]		65 nM	
CCN(CC)C(=O)N1c2ccccc2CCc2ccc(NC(=O)OC(C)C)cc21 [Compound 54]		19 nM	
CC(C)OC(=O)Nc1ccc2c(c1)N(C(=O)n1cccc1)c1ccccc1CC2 [Compound 55]		18 nM	
CC(C)OC(=O)Nc1ccc2c(c1)N(C(=O)OC1CCCC1)c1ccccc1CC2 [Compound 56]		16 nM	
CC(C)OC(=O)Nc1ccc2c(c1)N(C(=O)OCC(C)(C)C)c1ccccc1CC2 [Compound 57]		25 nM	
O=C(Nc1ccc2c(c1)N(C(=O)n1cccc1)c1ccccc1CC2)OC1CCCCC1 [Compound 58]		14 nM	
CCOC(=O)Nc1ccc2c(c1)N(C(=O)CN(CC)CC)c1ccccc1CC2 [Compound 70]		620 nM	% Inhibition (70 μM) [2]: 104.8%
CCNCC(=O)N1c2ccccc2CCc2ccc(N)cc21 [Compound 72]			inhibition at 70 µM (70 μM compound, 42 μM clotrimazole = 100%, DMSO = 0%, read-out: % Inhibition (70 μM)): 27%

Now from value to compound, other results behind:

IC50 [1]	IC50 (Table 4, read-out: IC50)	Structure (SMILES)	other results
	150 nM	O=C(Nc1ccc2c(c1)N(C(=O)N1CCCCC1)c1ccccc1CC2)OC1CCCCC1 [Compound 59]	
	17 nM	O=C(Nc1ccc2c(c1)N(C(=O)OC1CCCC1)c1ccccc1CC2)OC1CCCCC1 [Compound 60]	
	41 nM	CC(C)(C)COC(=O)N1c2ccccc2CCc2ccc(NC(=O)OC3CCCCC3)cc21 [Compound 61]	
	21 nM	CC(C)OC(=O)Nc1ccc2c(c1)N(C(=O)Cc1cccs1)c1ccccc1CC2 [Compound 62]	
	37 nM	CC(C)OC(=O)Nc1ccc2c(c1)N(C(=O)Cc1ccco1)c1ccccc1CC2 [Compound 63]	
	12 nM	CC(C)OC(=O)Nc1ccc2c(c1)N(C(=O)c1cccs1)c1ccccc1CC2 [Compound 64]	
	75 nM	CC(C)OC(=O)Nc1ccc2c(c1)N(C(=O)c1ccco1)c1ccccc1CC2 [Compound 65]	
	26 nM	O=C(Nc1ccc2c(c1)N(C(=O)Cc1cccs1)c1ccccc1CC2)OC1CCCCC1 [Compound 66]	
	31 nM	O=C(Nc1ccc2c(c1)N(C(=O)Cc1ccco1)c1ccccc1CC2)OC1CCCCC1 [Compound 67]	
	19 nM	O=C(Nc1ccc2c(c1)N(C(=O)c1cccs1)c1ccccc1CC2)OC1CCCCC1 [Compound 68]	
	50 nM	O=C(Nc1ccc2c(c1)N(C(=O)c1ccco1)c1ccccc1CC2)OC1CCCCC1 [Compound 69]	
	28000 nM	CCNCC(=O)N1c2ccccc2CCc2ccc(NC(=O)OCC)cc21 [Compound 71]	% Inhibition (70 μM) [2]: 77.6%
240 nM and 235 nM		CCOC(=O)Nc1ccc2c(c1)N(C(=O)CN1CCOCC1)c1ccccc1CC2 [compound 80]	fold increase of CAR inverse agonistic activity (potency) over lead chemical 1 (CINPA1): about 3 fold
38800 nM		CCOC(=O)Nc1ccc2c(c1)N(C(=O)CN1CCN(C)CC1)c1ccccc1CC2 [compound 81]	fold increase of IC50 (decrease of activity) relative to lead chemical 1 (CINPA1): 56 fold
3630 nM		CCOC(=O)Nc1ccc2c(c1)N(C(=O)CNC(C)(C)C)c1ccccc1CC2 [compound 83]	fold increase of IC50 (decrease of activity) relative to lead chemical 1 (CINPA1): 5 fold
320 nM		CCOC(=O)Nc1ccc2c(c1)N(C(=O)CCN1CCOCC1)c1ccccc1CC2 [compound 85]	
5010 nM		CCOC(=O)Nc1ccc2c(c1)N(C(=O)CCN(C)C)c1ccccc1CC2 [compound 86]	
290 nM		COC(=O)Nc1ccc2c(c1)N(C(=O)CCN1CCOCC1)c1ccccc1CC2 [compound 87]	
> 70000 nM		CC(C)OC(=O)Nc1ccc2c(c1)N(C(=O)CCN1CCN(CCO)CC1)c1ccccc1CC2 [compound 88]	IC50 (Table 6, CINPA1 and commercially available analogs, read-out: IC50): > 70000 nM
1790 nM		CC(C)OC(=O)Nc1ccc2c(c1)N(C(=O)CCN(C)C)c1ccccc1CC2 [compound 89]	fold increase of potency compared to chemical 86 (relative to chemical 86): about 3 fold
